Where “and” joins values, the source holds several entries; their conditions need not be identical. Equal values may be shown once.
Tests used:
Experiment in all cases: radiometric filter-binding kinase assay, Kinaseprofiler
TSSK2 (human) = TSSK2 (human) (UniProt Q96PF2); settings: compound 1.0 µM; ATP 15 µM
KDR (human) = KDR (human) (UniProt P35968); settings: compound 1.0 µM; ATP 90 µM
TSSK1B (human) = TSSK1B (human) (UniProt Q9BXA7); settings: compound 1.0 µM; ATP 15 µM
PAK6 (human) = PAK6 (human) (UniProt Q9NQU5); settings: compound 1.0 µM; ATP 10 µM
NEK3 (human) = NEK3 (human) (UniProt P51956); settings: compound 1.0 µM; ATP 120 µM
CSK (human) = CSK (human) (UniProt P41240); settings: compound 1.0 µM; ATP 15 µM
PTK2B (human) = PTK2B (human) (UniProt Q14289); settings: compound 1.0 µM; ATP 90 µM
[1] = test system: MAPKAPK2 (human), P49137 [A399G]; settings: compound 1.0 µM; ATP 90 µM
[2] = test system: GSK3B (human), P49841 [H350L]; settings: compound 1.0 µM; ATP 15 µM
DMPK (human) = DMPK (human) (UniProt Q09013); settings: compound 1.0 µM; ATP 10 µM
PRKCQ (human) = PRKCQ (human) (UniProt Q04759); settings: compound 1.0 µM; ATP 15 µM
PRKG1 (human) = PRKG1 (human) (UniProt Q13976); settings: compound 1.0 µM; ATP 90 µM
PRKG1 (human), sequence (Q13976 whole entry, looked up): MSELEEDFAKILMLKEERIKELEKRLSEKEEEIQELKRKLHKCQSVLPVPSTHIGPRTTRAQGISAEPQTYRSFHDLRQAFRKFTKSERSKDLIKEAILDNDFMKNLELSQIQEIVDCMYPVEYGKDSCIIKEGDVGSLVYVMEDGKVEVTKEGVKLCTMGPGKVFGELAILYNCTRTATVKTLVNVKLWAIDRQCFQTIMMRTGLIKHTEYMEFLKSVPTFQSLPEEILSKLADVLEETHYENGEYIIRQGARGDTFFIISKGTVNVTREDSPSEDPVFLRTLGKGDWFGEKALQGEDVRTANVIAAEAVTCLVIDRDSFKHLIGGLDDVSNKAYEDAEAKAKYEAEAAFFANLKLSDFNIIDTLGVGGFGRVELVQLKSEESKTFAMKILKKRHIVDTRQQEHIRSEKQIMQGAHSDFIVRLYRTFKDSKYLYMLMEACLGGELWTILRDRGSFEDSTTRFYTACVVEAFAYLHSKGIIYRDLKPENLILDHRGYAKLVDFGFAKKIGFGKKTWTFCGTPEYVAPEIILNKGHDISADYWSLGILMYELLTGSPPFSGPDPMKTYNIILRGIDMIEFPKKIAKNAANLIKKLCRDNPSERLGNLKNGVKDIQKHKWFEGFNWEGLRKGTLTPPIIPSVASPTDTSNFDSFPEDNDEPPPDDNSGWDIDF

RET (human) = RET (human) (UniProt P07949); settings: compound 1.0 µM; ATP 70 µM
[3] = test system: AURKA (human), O14965 [I31F]; settings: compound 1.0 µM; ATP 15 µM
PAK4 (human) = PAK4 (human) (UniProt O96013); settings: compound 1.0 µM; ATP 10 µM
CDK6 CCND3 (human) = CDK6 CCND3 (human) (UniProt P30281+Q00534); settings: compound 1.0 µM; ATP 200 µM
FGR (human) = FGR (human) (UniProt P09769); settings: compound 1.0 µM; ATP 45 µM
FGR (human), sequence (P09769 whole entry, looked up): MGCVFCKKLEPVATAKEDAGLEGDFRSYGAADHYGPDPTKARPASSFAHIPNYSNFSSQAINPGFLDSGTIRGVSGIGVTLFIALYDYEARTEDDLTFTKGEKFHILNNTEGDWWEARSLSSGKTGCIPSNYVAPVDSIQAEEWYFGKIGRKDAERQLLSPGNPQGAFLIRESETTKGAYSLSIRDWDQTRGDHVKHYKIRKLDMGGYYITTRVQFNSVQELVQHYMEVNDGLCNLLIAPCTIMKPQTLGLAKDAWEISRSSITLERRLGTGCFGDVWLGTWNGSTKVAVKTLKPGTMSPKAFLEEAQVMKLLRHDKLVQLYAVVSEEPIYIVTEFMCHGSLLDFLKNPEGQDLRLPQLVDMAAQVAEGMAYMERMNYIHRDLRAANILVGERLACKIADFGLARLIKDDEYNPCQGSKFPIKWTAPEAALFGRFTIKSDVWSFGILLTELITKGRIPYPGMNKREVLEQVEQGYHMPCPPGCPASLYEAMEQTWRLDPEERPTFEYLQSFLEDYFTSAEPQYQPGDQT

FES (human) = FES (human) (UniProt P07332); settings: compound 1.0 µM; ATP 45 µM
CHEK1 (human) = CHEK1 (human) (UniProt O14757); settings: compound 1.0 µM; ATP 90 µM
MAPK8 (human) = MAPK8 (human) (UniProt P45983); settings: compound 1.0 µM; ATP 45 µM
MAPK8 (human), sequence (P45983 whole entry, looked up): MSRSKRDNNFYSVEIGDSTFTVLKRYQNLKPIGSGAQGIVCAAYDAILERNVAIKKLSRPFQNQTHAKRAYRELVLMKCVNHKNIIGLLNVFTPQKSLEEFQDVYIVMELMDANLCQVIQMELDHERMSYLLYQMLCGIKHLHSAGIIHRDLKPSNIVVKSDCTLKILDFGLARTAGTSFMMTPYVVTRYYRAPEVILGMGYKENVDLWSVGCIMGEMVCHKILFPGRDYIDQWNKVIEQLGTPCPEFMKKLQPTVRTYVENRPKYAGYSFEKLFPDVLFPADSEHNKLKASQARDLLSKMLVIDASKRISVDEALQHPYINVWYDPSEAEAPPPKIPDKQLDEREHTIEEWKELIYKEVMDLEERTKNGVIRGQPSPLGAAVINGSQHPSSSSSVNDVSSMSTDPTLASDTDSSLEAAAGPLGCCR

BTK (human) = BTK (human) (UniProt Q06187); settings: compound 1.0 µM; ATP 200 µM
NTRK2 (human) = NTRK2 (human) (UniProt Q16620); settings: compound 1.0 µM; ATP 90 µM
[4] = test system: ABL1 (human), P00519 [T315I]; settings: compound 1.0 µM; ATP 10 µM
ALK (human) = ALK (human) (UniProt Q9UM73); settings: compound 1.0 µM; ATP 200 µM
PRKCB2 (human) = PRKCB2 (human) (UniProt P05771); settings: compound 1.0 µM; ATP 10 µM
MYLK (human) = MYLK (human) (UniProt Q15746); settings: compound 1.0 µM; ATP 70 µM
MYLK (human), sequence (Q15746 whole entry, looked up): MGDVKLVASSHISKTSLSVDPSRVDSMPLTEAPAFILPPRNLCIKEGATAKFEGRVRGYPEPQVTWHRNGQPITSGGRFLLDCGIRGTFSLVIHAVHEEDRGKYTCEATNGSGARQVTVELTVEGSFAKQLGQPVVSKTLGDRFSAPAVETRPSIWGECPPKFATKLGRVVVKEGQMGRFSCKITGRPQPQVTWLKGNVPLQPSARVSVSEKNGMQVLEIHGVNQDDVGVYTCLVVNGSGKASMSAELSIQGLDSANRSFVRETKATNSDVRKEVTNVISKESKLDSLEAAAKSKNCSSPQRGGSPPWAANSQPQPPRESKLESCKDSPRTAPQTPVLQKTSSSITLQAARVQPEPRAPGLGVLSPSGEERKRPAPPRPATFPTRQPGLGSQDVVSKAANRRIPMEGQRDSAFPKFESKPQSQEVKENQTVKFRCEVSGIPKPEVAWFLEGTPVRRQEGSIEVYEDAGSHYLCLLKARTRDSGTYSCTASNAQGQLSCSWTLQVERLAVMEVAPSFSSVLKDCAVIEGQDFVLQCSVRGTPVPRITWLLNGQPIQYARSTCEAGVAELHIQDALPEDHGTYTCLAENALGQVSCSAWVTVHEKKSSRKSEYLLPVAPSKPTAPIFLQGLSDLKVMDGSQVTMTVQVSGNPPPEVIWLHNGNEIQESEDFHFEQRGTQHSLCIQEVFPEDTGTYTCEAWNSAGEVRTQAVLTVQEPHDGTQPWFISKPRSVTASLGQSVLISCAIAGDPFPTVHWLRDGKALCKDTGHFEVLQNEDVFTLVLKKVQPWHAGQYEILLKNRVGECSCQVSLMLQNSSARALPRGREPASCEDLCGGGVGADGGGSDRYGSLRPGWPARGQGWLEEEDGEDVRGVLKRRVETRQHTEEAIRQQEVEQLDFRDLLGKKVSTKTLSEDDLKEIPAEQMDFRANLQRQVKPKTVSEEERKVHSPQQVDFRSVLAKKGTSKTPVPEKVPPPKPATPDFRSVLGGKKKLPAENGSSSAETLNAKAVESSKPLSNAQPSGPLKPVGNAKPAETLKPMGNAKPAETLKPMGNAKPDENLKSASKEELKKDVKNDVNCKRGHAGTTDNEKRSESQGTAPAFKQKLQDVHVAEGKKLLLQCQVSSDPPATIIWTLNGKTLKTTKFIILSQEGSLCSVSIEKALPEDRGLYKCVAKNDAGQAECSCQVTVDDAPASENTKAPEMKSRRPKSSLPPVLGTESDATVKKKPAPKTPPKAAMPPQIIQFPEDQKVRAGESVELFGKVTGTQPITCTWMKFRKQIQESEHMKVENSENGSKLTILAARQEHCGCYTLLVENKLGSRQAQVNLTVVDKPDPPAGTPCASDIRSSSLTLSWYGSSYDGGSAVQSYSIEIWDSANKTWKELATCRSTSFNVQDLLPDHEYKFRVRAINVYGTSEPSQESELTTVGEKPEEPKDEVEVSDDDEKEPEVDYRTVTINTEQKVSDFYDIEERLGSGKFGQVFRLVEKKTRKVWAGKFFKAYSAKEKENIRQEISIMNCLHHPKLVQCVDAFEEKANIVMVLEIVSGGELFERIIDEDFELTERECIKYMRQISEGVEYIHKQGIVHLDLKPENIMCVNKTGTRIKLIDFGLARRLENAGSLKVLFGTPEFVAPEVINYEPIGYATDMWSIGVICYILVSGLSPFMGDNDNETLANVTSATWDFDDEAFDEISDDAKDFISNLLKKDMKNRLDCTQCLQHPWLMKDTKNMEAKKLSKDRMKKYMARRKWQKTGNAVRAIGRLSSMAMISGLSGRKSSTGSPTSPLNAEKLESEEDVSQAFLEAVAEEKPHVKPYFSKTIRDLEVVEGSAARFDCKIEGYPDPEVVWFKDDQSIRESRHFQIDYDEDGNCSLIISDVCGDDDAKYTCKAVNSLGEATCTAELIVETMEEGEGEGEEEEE

FRK (human) = FRK (human) (UniProt P42685); settings: compound 1.0 µM; ATP 155 µM
KIT (human) = KIT (human) (UniProt P10721); settings: compound 1.0 µM; ATP 200 µM
[5] = test system: AKT2 (human), P31751 [S474D]; settings: compound 1.0 µM; ATP 200 µM
PRKCB1 (human) = PRKCB1 (human) (UniProt P05771); settings: compound 1.0 µM; ATP 10 µM
HCK (human) = HCK (human) (UniProt P08631); settings: compound 1.0 µM; ATP 70 µM
CHUK (human) = CHUK (human) (UniProt O15111); settings: compound 1.0 µM; ATP 10 µM
CHUK (human), sequence (O15111 whole entry, looked up): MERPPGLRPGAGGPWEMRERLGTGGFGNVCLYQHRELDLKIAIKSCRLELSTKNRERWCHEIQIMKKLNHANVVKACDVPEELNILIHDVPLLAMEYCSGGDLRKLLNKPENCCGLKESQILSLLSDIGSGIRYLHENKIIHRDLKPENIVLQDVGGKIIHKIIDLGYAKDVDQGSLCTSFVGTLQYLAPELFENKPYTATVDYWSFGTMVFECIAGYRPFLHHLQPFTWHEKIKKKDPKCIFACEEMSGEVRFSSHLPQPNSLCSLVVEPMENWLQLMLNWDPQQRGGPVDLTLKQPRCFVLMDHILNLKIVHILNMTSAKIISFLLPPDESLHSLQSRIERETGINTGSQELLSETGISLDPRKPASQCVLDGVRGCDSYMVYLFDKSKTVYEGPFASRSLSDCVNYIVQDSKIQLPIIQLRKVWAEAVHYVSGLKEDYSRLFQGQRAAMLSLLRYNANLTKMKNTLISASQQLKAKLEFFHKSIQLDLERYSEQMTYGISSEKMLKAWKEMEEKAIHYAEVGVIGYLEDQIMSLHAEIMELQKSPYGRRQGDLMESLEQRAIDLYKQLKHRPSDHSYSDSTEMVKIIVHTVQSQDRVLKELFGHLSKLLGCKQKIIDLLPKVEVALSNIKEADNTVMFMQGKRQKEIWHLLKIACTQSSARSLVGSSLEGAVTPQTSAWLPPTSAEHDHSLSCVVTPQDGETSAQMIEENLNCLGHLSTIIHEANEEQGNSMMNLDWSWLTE

PAK3 (human) = PAK3 (human) (UniProt O75914); settings: compound 1.0 µM; ATP 120 µM
SIK1 (human) = SIK1 (human) (UniProt P57059); settings: compound 1.0 µM; ATP 45 µM
SRC (human) = SRC (human) (UniProt P12931); settings: compound 1.0 µM; ATP 200 µM
STK4 (human) = STK4 (human) (UniProt Q13043); settings: compound 1.0 µM; ATP 90 µM
PRKCD (human) = PRKCD (human) (UniProt Q05655); settings: compound 1.0 µM; ATP 15 µM
INSRR (human) = INSRR (human) (UniProt P14616); settings: compound 1.0 µM; ATP 200 µM
EPHA4 (human) = EPHA4 (human) (UniProt P54764); settings: compound 1.0 µM; ATP 15 µM

TSSK2 (human), sequence (Q96PF2 whole entry, looked up): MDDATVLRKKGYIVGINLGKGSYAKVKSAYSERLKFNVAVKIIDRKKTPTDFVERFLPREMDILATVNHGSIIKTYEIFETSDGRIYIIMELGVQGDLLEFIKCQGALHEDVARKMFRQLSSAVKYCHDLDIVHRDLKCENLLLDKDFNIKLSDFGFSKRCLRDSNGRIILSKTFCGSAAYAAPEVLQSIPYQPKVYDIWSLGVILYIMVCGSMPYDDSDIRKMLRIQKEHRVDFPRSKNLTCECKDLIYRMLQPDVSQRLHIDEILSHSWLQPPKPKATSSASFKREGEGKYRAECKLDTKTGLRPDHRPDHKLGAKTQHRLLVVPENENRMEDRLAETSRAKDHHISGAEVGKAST
TSSK1B (human), sequence (Q9BXA7 whole entry, looked up): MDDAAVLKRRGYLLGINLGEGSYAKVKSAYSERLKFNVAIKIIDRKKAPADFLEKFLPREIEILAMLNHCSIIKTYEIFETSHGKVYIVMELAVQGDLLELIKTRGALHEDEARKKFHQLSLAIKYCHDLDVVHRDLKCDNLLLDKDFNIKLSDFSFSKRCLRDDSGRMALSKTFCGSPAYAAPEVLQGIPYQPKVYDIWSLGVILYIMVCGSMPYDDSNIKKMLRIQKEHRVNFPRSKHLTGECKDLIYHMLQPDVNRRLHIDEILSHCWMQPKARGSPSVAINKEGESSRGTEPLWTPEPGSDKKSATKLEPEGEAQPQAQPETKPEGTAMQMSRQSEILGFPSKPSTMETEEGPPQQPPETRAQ

residual activity (TSSK2 (human)): 83%
residual activity (KDR (human)): 10%
residual activity (TSSK1B (human)): 89%
residual activity (PAK6 (human)): 109%
residual activity (NEK3 (human)): 104%
residual activity (CSK (human)): 85%
residual activity (PTK2B (human)): 101%
residual activity [1]: 104%
residual activity [2]: 110%
residual activity (DMPK (human)): 101%
residual activity (PRKCQ (human)): 100%
residual activity (PRKG1 (human)): 6% and -14%
residual activity (RET (human)): 2%
residual activity [3]: 7%
residual activity (PAK4 (human)): 94%
residual activity (CDK6 CCND3 (human)): 108%
residual activity (FGR (human)): 90%
residual activity (FES (human)): 113%
residual activity (CHEK1 (human)): 98%
residual activity (MAPK8 (human)): 98%
residual activity (BTK (human)): 83%
residual activity (NTRK2 (human)): 15%
residual activity [4]: 35%
residual activity (ALK (human)): 0%
residual activity (PRKCB2 (human)): 105%
residual activity (MYLK (human)): 61%
residual activity (FRK (human)): 104%
residual activity (KIT (human)): 78%
residual activity [5]: 89%
residual activity (PRKCB1 (human)): 104%
residual activity (HCK (human)): 33%
residual activity (CHUK (human)): 98%
residual activity (PAK3 (human)): 99%
residual activity (SIK1 (human)): 87%
residual activity (SRC (human)): 125%
residual activity (STK4 (human)): 80%
residual activity (PRKCD (human)): 92%
residual activity (INSRR (human)): 103%
residual activity (EPHA4 (human)): 103%
SMILES: CN(C)S(=O)(=O)Nc1ccc2ccc3ncc(-c4cnn(C)c4)cc3c(=O)c2c1

Reference: the kinase profiling compilation of Christmann-Franck et al. (2016)
